The values that follow come from US9611283B1, “Methods for inhibiting cell proliferation in ALK-driven cancers” (ARIAD Pharmaceuticals, Inc., priority 2013, dated 2017).

Read-outs that look alike come from different tables or passages of the source. Where only a bound is given, the exact number is not on record here.

One series relates to Parental Ba/F3 cells. As to the kind of experiment: In vitro viability / Ba/F3 cellular proliferation assay, parental cells. The class given is cell-based. The settings on record: Mus musculus; for IC50: BaF3.
For series [1], the target named is Ba/F3 cells expressing EML4-ALK 1151 T insertion (Homo sapiens, UniProt Q9UM73, DUP1151-1151). As to the kind of experiment: Ba/F3 cellular proliferation assay, EML4-ALK 1151 T insertion. The settings on record: Table 2.
Series [2] concerns Ba/F3 EML4-ALK S1206R tumors. Kind of series: In vivo efficacy, xenograft of Ba/F3 cells expressing EML4-ALK S1206R. The arrangement: species or system SCID Beige mice. The note with it: 75 mg/kg, once daily oral gavage.
In series [3] the test system is Ba/F3 EML4-ALK G1269S tumors. Kind of series: In vivo efficacy, xenograft of Ba/F3 cells expressing EML4-ALK G1269S. More on the design: species or system SCID Beige mice. The settings on record: 50 and 75 mg/kg, once daily oral gavage.
The test system of series [4] is Ba/F3 cells expressing native EML4-ALK. As to the kind of experiment: Accelerated in vitro mutagenesis screen.
The subject of the next series is EML4-ALK S1206R tumors. As to the kind of experiment: Pharmacodynamics: p-ALK in EML4-ALK S1206R tumors in vivo. The arrangement: species or system mice. The settings on record: sustained for 24 hrs after single dose of 50 mg/kg. The procedure:
Calibration standards were prepared in blank mouse plasma.

For series [5] the following is noted: clinical, at MTD; cited from earlier work.
Where [6] appears, read: Table 2, Ba/F3 parental, read-out: IC50.

In the case of `COc1cc(N2CCC(N3CCN(C)CC3)CC2)ccc1Nc1ncnc(Nc2ccccc2S(=O)(=O)C(C)C)n1` [ASP3026], the IC50 was over 10 µM in the series on Parental Ba/F3 cells (setting [6]) and 5.94 ± 2.28 µM in series [1].

For `CCc1cc2c(cc1N1CCC(N3CCOCC3)CC1)C(C)(C)c1[nH]c3cc(C#N)ccc3c1C2=O` [CH5424802], the IC50 with Parental Ba/F3 cells (setting [6]) was over 10 µM.

Turning to `COc1cc(N2CCC(N3CCN(C)CC3)CC2)ccc1Nc1ncc(Cl)c(Nc2ccccc2P(C)(C)=O)n1` [Compound 1], the IC50 came out at 2.19 ± 0.41 µM in the series on Parental Ba/F3 cells (Table 1, Parental Ba/F3 (IL-3), 72 h, n = 5, read-out: IC50s) and 4.58 ± 1.55 µM with Parental Ba/F3 cells (setting [6]). For the same molecule, the results for the “tumor response in xenograft” value in series [2] and in series [3] were “tumor growth inhibition” and “complete tumor regression”, respectively. Besides, the mutations recovered result in series [4] (at 500 nM (S1206R)) was “only one”. Also, in series [4] (mutagenesis screen), the “concentration that completely suppressed the emergence of resistance” value is recorded as 1000 nM. The “mutants recovered in the screen” value in series [4] (number of different mutants) was “ten”. Moreover, in the series with EML4-ALK S1206R tumors, the p-ALK inhibition is reported as 40-60%.

On to `C[C@@H](Oc1cc(-c2cnn(C3CCNCC3)c2)cnc1N)c1c(Cl)ccc(F)c1Cl` [crizotinib], for which, in the series with Parental Ba/F3 cells (BaF3, read-out: inhibition of parental Ba/F3 cell proliferation), the inhibition at […] was over 90%. Further, the IC50 in the series on Parental Ba/F3 cells (setting [6]) stood at 2.06 ± 0.373 µM. Moreover, the “median Ctrough” value in series [5] was about 225 ng/mL.
